Activity calls are given as the source filed them. The calls are words filed in the database; no cut-off is given here.

This passage reports EC50, Ki and inhibition results from ChEMBL document CHEMBL5154840, “Development of novel dipeptide nitriles as inhibitors of rhodesain of Trypanosoma brucei rhodesiense” (Eur J Med Chem, 2022).

Assay [1] has as its system Trypanosoma brucei brucei. Briefly: Antitrypanosomal activity against Trypanosoma brucei brucei measured after 24 hrs by ATPlite assay. The format is functional, organism-based. On the technique in general: Cellular ATP, detected with luciferase, serves as a proxy for viable cell number.
In assay [2] the test system is Trypanosoma brucei brucei. Briefly: Antitrypanosomal activity against Trypanosoma brucei brucei measured after 48 hrs by ATPlite assay. The format is functional, organism-based.
Assay [3] deals with Rhodesain (Trypanosoma brucei rhodesiense, UniProt Q95PM0). Kind of assay: Inhibition of full length Trypanosoma brucei rhodesiense rhodesain expressed in pichia pastoris using Cbz-Phe-Arg-AMC as substrate measured for 10 mins by fluorometric enzyme assays.
Assay [4] deals with Rhodesain (Trypanosoma brucei rhodesiense) (UniProt Q95PM0). Kind of assay: Competitive inhibition of Trypanosoma brucei rhodesiense rhodesain expressed in pichia pastoris using varying concentration of Cbz-Phe-Arg-AMC as substrate by fluorometric enzyme assays.
Rhodesain (Trypanosoma brucei rhodesiense), sequence (Q95PM0 1-450): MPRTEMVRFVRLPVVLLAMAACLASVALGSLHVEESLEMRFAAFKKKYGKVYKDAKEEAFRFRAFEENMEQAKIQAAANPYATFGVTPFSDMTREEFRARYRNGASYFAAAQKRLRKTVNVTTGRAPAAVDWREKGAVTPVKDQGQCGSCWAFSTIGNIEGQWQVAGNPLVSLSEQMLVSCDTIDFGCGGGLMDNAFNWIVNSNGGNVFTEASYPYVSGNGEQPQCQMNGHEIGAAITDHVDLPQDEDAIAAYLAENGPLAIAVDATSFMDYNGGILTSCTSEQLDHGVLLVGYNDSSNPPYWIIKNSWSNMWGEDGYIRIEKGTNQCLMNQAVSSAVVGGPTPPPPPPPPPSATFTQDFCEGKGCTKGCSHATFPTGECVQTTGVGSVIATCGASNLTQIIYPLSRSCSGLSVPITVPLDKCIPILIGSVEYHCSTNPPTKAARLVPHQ

Rhodesain, sequence (Q95PM0 whole entry): as the sequence (Q95PM0 1-450) above

The term EC50 denotes the concentration that produces a half-maximal response. Read a low EC50 as higher potency in that assay. Take `N#C[C@H](CCc1ccccc1)NC(=O)[C@H](Cc1ccccc1)NC(=O)c1ccc(F)cc1F`: the EC50 stood at 18.7 µM in assay [1] and 23.4 µM in assay [2].

The Ki is a measure of affinity in units of concentration, obtained from inhibition or displacement. Low values mean higher affinity, high ones lower affinity. In turn, `N#C[C@H](CCc1ccccc1)NC(=O)[C@H](Cc1ccccc1)NC(=O)c1ccc(F)cc1` gave a Ki in assay [3] of 0.07 µM. Also, the results for the EC50 in assay [1] and in assay [2] were 10.6 µM and 14.5 µM, respectively.

`CC(C)C[C@H](NC(=O)c1ccc(F)cc1F)C(=O)N[C@H](C#N)CCc1ccccc1` had a Ki in assay [3] of 0.066 µM. The results for the EC50 in assay [1] and in assay [2] were 19.3 µM and 22.5 µM, respectively.

As for `CC(C)C[C@H](NC(=O)c1cccc(F)c1)C(=O)N[C@H](C#N)CCc1ccccc1`, the Ki in assay [3] worked out at 0.016 µM. Besides, the inhibition entry in assay [4] was “Active”. In addition, the EC50 in assay [1] turned out to be 10.1 µM; in assay [2], 14.1 µM.

In turn, `CC(C)C[C@H](NC(=O)c1c(F)cccc1F)C(=O)N[C@H](C#N)CCc1ccccc1` came in with a Ki in assay [3] of 0.052 µM. Moreover, the EC50 in assay [1] is 18.6 µM; in assay [2], 27.1 µM.

In turn, `N#C[C@H](CCc1ccccc1)NC(=O)[C@H](Cc1ccccc1)NC(=O)c1cccc(F)c1` displayed a Ki in assay [3] of 0.072 µM. Moreover, the EC50 amounted to 9.1 µM in assay [1] and 9.4 µM in assay [2].

With `CC(C)C[C@H](NC(=O)c1ccccc1F)C(=O)N[C@H](C#N)CCc1ccccc1`, in assay [3], the Ki was determined as 0.032 µM. The EC50 in assay [1] worked out at 21.1 µM; in assay [2] it was 32 µM.

As to `CC(C)C[C@H](NC(=O)c1ccc(F)cc1)C(=O)N[C@H](C#N)CCc1ccccc1`, affinity in assay [3] was put at a Ki of 0.052 µM. Besides, the EC50 in assay [1] amounted to 13.3 µM; in assay [2] it was 18.7 µM.

For the molecule `N#C[C@H](CCc1ccccc1)NC(=O)[C@H](Cc1ccccc1)NC(=O)c1c(F)cccc1F`, in assay [3], the affinity, expressed as Ki, was 0.122 µM. The EC50 was 5.3 µM in assay [1] and 8.8 µM in assay [2].

In assay [3], `N#C[C@H](CCc1ccccc1)NC(=O)[C@H](Cc1ccccc1)NC(=O)c1ccccc1F` yielded a Ki of 0.112 µM. Also, the EC50 was 10.3 µM in assay [1] and 11.6 µM in assay [2].
